Assay [1] addresses GABA-A receptor; anion channel. In words: Non-competitive antagonist activity against Gamma-aminobutyric acid A (GABA-A) receptor. The assay is classed as functional, Rattus norvegicus.
The target of assay [2] is GABA-A receptor; anion channel. The assay is described as follows: Potent antagonist activity against Gamma-aminobutyric acid A (GABA-A) receptor from rat cortex RNA expressed in Xenopus oocytes. The assay is classed as functional, cell-based. Conditions: oocyte.
In assay [3] the target is T1, Gamma-aminobutyric acid receptor subunit rho-1 (Homo sapiens, UniProt P24046). The assay is described as follows: Partial agonist activity against human rho1 subunit GABA-C receptor expressed in Xenopus oocytes. In kind it is functional, cell-based, Oocyte.
T1 sequence (P24046 whole entry): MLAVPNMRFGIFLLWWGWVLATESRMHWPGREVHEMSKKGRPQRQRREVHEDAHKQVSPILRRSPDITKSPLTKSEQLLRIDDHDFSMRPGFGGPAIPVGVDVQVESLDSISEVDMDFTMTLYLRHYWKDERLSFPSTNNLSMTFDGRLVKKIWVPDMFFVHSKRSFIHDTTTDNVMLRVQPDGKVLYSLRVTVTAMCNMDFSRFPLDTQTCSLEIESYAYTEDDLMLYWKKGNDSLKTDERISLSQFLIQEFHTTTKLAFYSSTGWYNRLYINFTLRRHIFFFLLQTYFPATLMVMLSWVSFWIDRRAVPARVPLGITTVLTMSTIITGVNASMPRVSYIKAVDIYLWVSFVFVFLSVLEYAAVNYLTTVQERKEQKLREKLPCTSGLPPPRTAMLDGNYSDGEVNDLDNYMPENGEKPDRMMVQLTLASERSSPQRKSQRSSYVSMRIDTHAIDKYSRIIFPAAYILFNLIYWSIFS
Assay [4] deals with T2, Gamma-aminobutyric acid receptor subunit rho-2 (Homo sapiens, UniProt P28476). In words: Partial agonist activity against human rho-2 subunit GABA-C receptor expressed in Xenopus oocytes. In kind it is functional, cell-based, Oocyte.
T2 sequence (P28476 whole entry): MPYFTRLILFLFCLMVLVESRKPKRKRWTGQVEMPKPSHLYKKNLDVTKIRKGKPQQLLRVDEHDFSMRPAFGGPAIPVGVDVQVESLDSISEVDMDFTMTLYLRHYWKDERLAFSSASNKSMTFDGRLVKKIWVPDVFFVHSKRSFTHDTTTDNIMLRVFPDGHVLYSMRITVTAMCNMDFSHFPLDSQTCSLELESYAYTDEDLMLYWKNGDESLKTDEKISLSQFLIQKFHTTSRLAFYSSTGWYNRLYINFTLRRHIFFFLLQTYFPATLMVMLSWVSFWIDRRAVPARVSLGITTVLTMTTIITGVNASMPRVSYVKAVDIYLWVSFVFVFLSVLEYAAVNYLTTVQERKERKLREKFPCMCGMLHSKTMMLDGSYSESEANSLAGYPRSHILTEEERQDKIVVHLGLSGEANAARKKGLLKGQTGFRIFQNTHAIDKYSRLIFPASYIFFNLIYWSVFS
Assay [5] deals with T1, Gamma-aminobutyric acid receptor subunit rho-1. In words: Partial agonist activity against rho-1 subunit GABA-C receptor expressed in Xenopus oocytes with low efficacy. The assay is classed as functional, cell-based, Oocyte.
The target in assay [6] is T2, Gamma-aminobutyric acid receptor subunit rho-2. The assay is described as follows: Full agonist activity against human rho-2 subunit GABA-C receptor expressed in Xenopus oocytes. The assay is classed as functional, cell-based, Oocyte.
In assay [7] the target is T1, Gamma-aminobutyric acid receptor subunit rho-1. In words: Full agonist activity against human rho-1 subunit GABA-C receptor expressed in Xenopus oocytes. The assay is classed as functional, cell-based, Oocyte.
Assay [8] has as its target T2, Gamma-aminobutyric acid receptor subunit rho-2. In words: Partial agonist activity with low efficacy against rho-2 subunit GABA-C receptor expressed in Xenopus oocytes. The assay is classed as functional, cell-based, Oocyte.
Assay [9] concerns the target T1, Gamma-aminobutyric acid receptor subunit rho-1. The assay is described as follows: Partial agonist activity against rho-1 subunit GABA-C receptor expressed in Xenopus oocytes. In kind it is functional, cell-based, Oocyte.
Assay [10] shares this target. In words: Partial agonist activity against human rho-1 subunit GABA-C receptor expressed in Xenopus oocytes. The assay is classed as functional, cell-based, Oocyte.
The target in assay [11] is GABA-A receptor; anion channel. In words: Affinity against recombinant Gamma-aminobutyric acid A (GABA-A) receptor. In kind it is protein-complex assay.
The target in assay [12] is GABA-A receptor; anion channel. The assay is described as follows: Antagonist activity against Gamma-aminobutyric acid A (GABA-A) receptor. In kind it is functional, Rattus norvegicus.
Assay [13] concerns the target T1, Gamma-aminobutyric acid receptor subunit rho-1. The assay is described as follows: Antagonist activity against rho-1 subunit GABA-C receptor expressed in Xenopus oocytes. In kind it is functional, cell-based. Conditions: Oocyte.
For assay [14], the target named is T2, Gamma-aminobutyric acid receptor subunit rho-2. The assay is described as follows: Activation of human rho2 GABA-C receptor at 34% of maximal GABA-induced response.
The target is the same in assay [15]. In words: Partial agonist activity against rho-2 subunit GABA-C receptor expressed in Xenopus oocytes, higher intrinsic activity (Im 38%). The assay is classed as functional, cell-based, Oocyte.
The target in assay [16] is T1, Gamma-aminobutyric acid receptor subunit rho-1. In words: Partial agonist activity against rho-1 subunit GABA-C receptor expressed in Xenopus oocytes, low intrinsic activity (Im 3%). In kind it is functional, cell-based, Oocyte.
Assay [17] concerns the target GABA-C receptor (Homo sapiens) (UniProt P28476+A8MPY1+P24046). The assay is described as follows: Antagonist activity against rho subunit Gamma-aminobutyric acid C (GABA-C) receptor expressed in Xenopus oocytes. The assay is classed as functional, cell-based. Conditions: Oocyte.
Assay [18] concerns the target GABA-A receptor; anion channel. The assay is described as follows: Inhibitory activity against Gamma-aminobutyric acid A (GABA-A) receptor from rat cultured cortical neuron RNA expressed in Xenopus oocytes. In kind it is functional, cell-based. Conditions: oocyte.
For another assay, the target named is GABA-C receptor (Homo sapiens, UniProt A8MPY1+P24046+P28476). The assay is described as follows: Agonist activity against Gamma-aminobutyric acid type C (GABA-C) receptor derived from bovine retinal RNA expressed in Xenopus oocytes. The assay is classed as functional, cell-based, Bos taurus, Oocyte.
GABA-C receptor, sequence (P28476 whole entry): as above
GABA-C receptor, sequence (A8MPY1 whole entry): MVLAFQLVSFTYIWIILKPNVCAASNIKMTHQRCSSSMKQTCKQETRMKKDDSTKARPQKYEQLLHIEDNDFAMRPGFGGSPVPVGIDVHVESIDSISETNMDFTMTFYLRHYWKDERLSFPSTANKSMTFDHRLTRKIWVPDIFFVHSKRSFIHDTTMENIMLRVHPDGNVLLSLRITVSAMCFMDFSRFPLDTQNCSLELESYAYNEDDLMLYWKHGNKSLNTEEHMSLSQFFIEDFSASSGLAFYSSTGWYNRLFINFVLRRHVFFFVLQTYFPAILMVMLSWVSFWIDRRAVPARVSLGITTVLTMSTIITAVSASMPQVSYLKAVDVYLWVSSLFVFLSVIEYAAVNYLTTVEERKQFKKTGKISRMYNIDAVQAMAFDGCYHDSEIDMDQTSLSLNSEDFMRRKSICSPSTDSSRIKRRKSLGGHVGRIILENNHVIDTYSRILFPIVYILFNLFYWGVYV
GABA-C receptor, sequence (P24046 whole entry): as the sequence (P24046 whole entry) above
Assay [19] has as its target T2, Gamma-aminobutyric acid receptor subunit rho-2. The assay is described as follows: Partial agonist activity against homomeric rho-2 subunit GABA-C receptor expressed in Xenopus oocytes. The assay is classed as functional, cell-based, Oocyte.
Assay [20] addresses GABA-A receptor; anion channel. In words: Competitive antagonist activity against Gamma-aminobutyric acid A (GABA-A) receptor. In kind it is functional.

These results are taken from ChEMBL document CHEMBL1133003, “GABA-Activated ligand gated ion channels: medicinal chemistry and molecular biology” (J Med Chem, 2000).

SMILES strings stand for the structures.

GABA-C receptor (Homo sapiens), sequence (A8MPY1 whole entry, looked up): as the sequence (A8MPY1 whole entry) above
GABA-C receptor (Homo sapiens), sequence (P24046 whole entry, looked up): as the sequence (P24046 whole entry) above
GABA-C receptor (Homo sapiens), sequence (P28476 whole entry, looked up): as the sequence (P28476 whole entry) above

For the compound `Cc1nccn1CC1CCc2c(c3ccccc3n2C)C1=O` (centres undefined) [ONDANSETRON], the IC50 in assay [1] was determined as 10 µM. In assay [2], `O=S(=O)(O)C1CCNCC1` showed a Kd of 104 µM. For the compound `NCCCS(=O)O` [HOMOHYPOTAURINE], the EC50 in assay [3] amounted to 4.6 µM.

With `NC/C=C\C(=O)O`, the EC50 turned out to be 70 µM in [4] and 74 µM in assay [3]. Turning to `NC[C@@H]1C[C@@H]1C(=O)O` (relative stereo), the EC50 in [5] was 20 µM; in [6] it was 34.5 µM; in assay [7], 68 µM; in [8], 17.5 µM. Consider `NC/C=C(\F)C(=O)O`, for which the EC50 in assay [9] worked out at 2.43 µM. For the compound `NCc1cc(=O)[nH]o1` [MUSCIMOL], the values for the Kd in assay [4] and in [10] were 1.4 µM and 2.3 µM, respectively. Take `O=c1cc(-c2cccc([N+](=O)[O-])c2)oc2cccc(Br)c12`: in assay [11], the Ki was 0.03 µM. Take `Cc1ccc2c(c1)c1c3n2CCNC3CCC1` (centres undefined) [PIRLINDOLE]: the midpoint of the response in [12], the EC50, lay at 12 µM. Compound `C/C(=C\CN)C(=O)O` returned a Kb in assay [13] of 45 µM. This compound displayed an EC50 in assay [14] of 101 µM. Regarding `COC(=O)[C@H]1[C@@H](OC(=O)c2ccccc2)C[C@@H]2CC[C@H]1N2C` [COCAINE], the IC50 in [11] worked out at 127 µM.

On to `O=C(O)Cc1c[nH]cn1` [IMIDAZOLE ACETIC ACID], for which the EC50 in [15] was 3 µM; in assay [16] it was 16 µM. The Kb in assay [17] came out at 1.5 µM. `CCCCCCCC/C=C\CCCCCCCC(N)=O` [OLEAMIDE] displayed an EC50 in assay [18] of 15 µM. At GABA-C receptor, `NC/C=C/C(=O)O` [t-4-AMINOCROTONIC ACID (TACA)] registered a Kd of 0.6 µM. Further, it took 0.4 µM to reach a half-maximal effect in [19] (EC50). On to `c1ccc2c(NCCCCCCCNc3c4c(nc5ccccc35)CCCC4)c3c(nc2c1)CCCC3`, for which, in assay [20], the IC50 turned out to be 6 µM.
